Measured values reported in PMC5218480 (PLoS ONE, 2017).

Tested on: MV-4-11 cells
Test: Gene expression microarray analysis (Affymetrix PrimeView) and GSEA
Type: cell-based, human
Set-up: RFU PODN (11730768_x_at) / Fold change /veh PODN (11730768_x_at) / RFU LINC00158 (11744669_a_at) / Fold change /veh LINC00158 (11744669_a_at) / RFU DUSP10 (11751237_a_at) / Fold change /veh DUSP10 (11751237_a_at) / RFU ID3 (11757404_x_at) / Fold change /veh ID3 (11757404_x_at) / RFU PLEKHG5 (11737974_s_at) / Fold change /veh PLEKHG5 (11737974_s_at) / RFU LRRC4B (11730491_at) / Fold change /veh LRRC4B (11730491_at) / RFU GIMAP4 (11747438_a_at) / Fold change /veh GIMAP4 (11747438_a_at) / RFU KRT8 (11758183_x_at) / Fold change /veh KRT8 (11758183_x_at) / RFU CNN1 (11734310_a_at) / Fold change /veh CNN1 (11734310_a_at) / RFU VPS37D (11726825_at) / Fold change /veh VPS37D (11726825_at) / RFU C10orf10 (11716522_x_at) / Fold change /veh C10orf10 (11716522_x_at) / RFU KIR2DL2 /// KIR2DL4 /// KIR2DL5A /// KIR2DL5B /// KIR2DS1 /// KIR2DS2 /// KIR2DS3 /// KIR2DS4 /// KIR3DL3 /// KIR3DL3 /// KIR3DS1 (11738374_at) / Fold change /veh KIR2DL2 /// KIR2DL4 /// KIR2DL5A /// KIR2DL5B /// KIR2DS1 /// KIR2DS2 /// KIR2DS3 /// KIR2DS4 /// KIR3DL3 /// KIR3DL3 /// KIR3DS1 (11738374_at) / RFU C1QL1 (11718748_at) / Fold change /veh C1QL1 (11718748_at) / RFU TMPRSS4 (11747572_a_at) / Fold change /veh TMPRSS4 (11747572_a_at) / RFU HAMP (11756126_x_at) / Fold change /veh HAMP (11756126_x_at) / RFU RNFT2 (11725882_a_at) / Fold change /veh RNFT2 (11725882_a_at) / RFU NR4A2 (11747474_a_at) / Fold change /veh NR4A2 (11747474_a_at) / RFU ABCC12 (11746883_a_at) / Fold change /veh ABCC12 (11746883_a_at) / RFU TMEM136 (11760407_x_at) / Fold change /veh TMEM136 (11760407_x_at) / RFU CLDN22 /// WWC2 (11732394_at) / Fold change /veh CLDN22 /// WWC2 (11732394_at) / RFU HLA-DPB1 (11760878_x_at) / Fold change /veh HLA-DPB1 (11760878_x_at) / RFU SPINT1 (11716480_a_at) / Fold change /veh SPINT1 (11716480_a_at) / RFU GAP43 (11754022_s_at) / Fold change /veh GAP43 (11754022_s_at) / RFU A4GNT (11735810_at) / Fold change /veh A4GNT (11735810_at) / RFU PRB3 (11715151_x_at) / Fold change /veh PRB3 (11715151_x_at) / RFU TUBB4B (11761932_at) / Fold change /veh TUBB4B (11761932_at) / RFU CAPN14 (11732068_a_at) / Fold change /veh CAPN14 (11732068_a_at) / RFU TMCC2 (11721928_a_at) / Fold change /veh TMCC2 (11721928_a_at) / RFU IRGQ (11745062_a_at) / Fold change /veh IRGQ (11745062_a_at) / RFU FAM174B (11720279_a_at) / Fold change /veh FAM174B (11720279_a_at) / RFU TMPRSS4 (11748680_a_at) / Fold change /veh TMPRSS4 (11748680_a_at) / RFU FAM212B (11763350_a_at) / Fold change /veh FAM212B (11763350_a_at) / RFU PLEKHG5 (11743358_a_at) / Fold change /veh PLEKHG5 (11743358_a_at) / RFU ZSCAN30 (11745921_a_at) / Fold change /veh ZSCAN30 (11745921_a_at) / RFU CMKLR1 (11741424_a_at) / Fold change /veh CMKLR1 (11741424_a_at) / RFU LOC101060620 /// MAPK8IP1 (11723275_at) / Fold change /veh LOC101060620 /// MAPK8IP1 (11723275_at) / RFU SPTSSB (11747773_x_at) / Fold change /veh SPTSSB (11747773_x_at) / RFU PRSS12 (11739890_at) / Fold change /veh PRSS12 (11739890_at) / RFU BIN1 (11741810_x_at) / Fold change /veh BIN1 (11741810_x_at) / RFU WNT11 (11732464_a_at) / Fold change /veh WNT11 (11732464_a_at) / RFU C10orf10 (11716521_a_at) / Fold change /veh C10orf10 (11716521_a_at) / RFU C5orf56 (11738089_at) / Fold change /veh C5orf56 (11738089_at) / RFU CYB561 (11721691_x_at) / Fold change /veh CYB561 (11721691_x_at) / RFU ANKRD19P (11752326_a_at) / Fold change /veh ANKRD19P (11752326_a_at) / RFU OR2T12 /// OR2T33 /// OR2T8 (11738714_s_at) / Fold change /veh OR2T12 /// OR2T33 /// OR2T8 (11738714_s_at) / RFU VCAN (11748164_a_at) / Fold change /veh VCAN (11748164_a_at) / RFU JSRP1 (11732532_at) / Fold change /veh JSRP1 (11732532_at) / RFU KRTAP10-11 (11738290_x_at) / Fold change /veh KRTAP10-11 (11738290_x_at) / RFU MYO3A (11730013_a_at) / Fold change /veh MYO3A (11730013_a_at) / RFU EBF3 (11725865_a_at) / Fold change /veh EBF3 (11725865_a_at) / RFU CAMK2N1 (11719241_x_at) / Fold change /veh CAMK2N1 (11719241_x_at) / RFU C5orf56 (11738088_a_at) / Fold change /veh C5orf56 (11738088_a_at) / RFU OLFML3 (11715873_a_at) / Fold change /veh OLFML3 (11715873_a_at) / RFU LOC100653217 /// NTM (11731650_a_at) / Fold change /veh LOC100653217 /// NTM (11731650_a_at) / RFU MAPK11 (11762145_a_at) / Fold change /veh MAPK11 (11762145_a_at) / RFU FIZ1 (11724087_x_at) / Fold change /veh FIZ1 (11724087_x_at) / RFU OASL (11726364_x_at) / Fold change /veh OASL (11726364_x_at) / RFU SOX15 (11748057_x_at) / Fold change /veh SOX15 (11748057_x_at) / RFU CD79A (11719716_a_at) / Fold change /veh CD79A (11719716_a_at) / RFU HIST1H1D (11736915_at) / Fold change /veh HIST1H1D (11736915_at) / RFU CASKIN2 (11723855_a_at) / Fold change /veh CASKIN2 (11723855_a_at) / RFU LOC730098 (11760151_x_at) / Fold change /veh LOC730098 (11760151_x_at) / RFU OR4N2 (11742367_at) / Fold change /veh OR4N2 (11742367_at) / RFU PRRT2 (11749266_a_at) / Fold change /veh PRRT2 (11749266_a_at) / RFU SNX32 (11753110_a_at) / Fold change /veh SNX32 (11753110_a_at) / RFU CDHR5 (11726645_a_at) / Fold change /veh CDHR5 (11726645_a_at) / RFU RCAN1 (11760418_a_at) / Fold change /veh RCAN1 (11760418_a_at) / RFU FAM167A (11723789_a_at) / Fold change /veh FAM167A (11723789_a_at) / RFU FAM26E (11764081_at) / Fold change /veh FAM26E (11764081_at) / RFU ISYNA1 (11749810_s_at) / Fold change /veh ISYNA1 (11749810_s_at) / RFU ACY1 (11761880_at) / Fold change /veh ACY1 (11761880_at) / RFU 11764098_at / Fold change /veh 11764098_at / RFU SAMD14 (11745864_x_at) / Fold change /veh SAMD14 (11745864_x_at) / RFU NPB (11741838_a_at) / Fold change /veh NPB (11741838_a_at) / RFU TMPRSS6 (11731388_a_at) / Fold change /veh TMPRSS6 (11731388_a_at) / RFU KRTAP10-2 (11738614_at) / Fold change /veh KRTAP10-2 (11738614_at) / RFU ARHGAP8 /// PRR5-ARHGAP8 (11727945_x_at) / Fold change /veh ARHGAP8 /// PRR5-ARHGAP8 (11727945_x_at) / RFU KRTAP5-7 /// NADSYN1 (11734609_at) / Fold change /veh KRTAP5-7 /// NADSYN1 (11734609_at) / RFU RASL12 (11751679_a_at) / Fold change /veh RASL12 (11751679_a_at) / RFU CDKN2B (11736163_a_at) / Fold change /veh CDKN2B (11736163_a_at) / RFU PRF1 (11729649_at) / Fold change /veh PRF1 (11729649_at) / RFU, ZNF638 /// ZNF638-IT1 / Fold change vs veh, ZNF638 /// ZNF638-IT1 / RFU, PANK3 / Fold change vs veh, PANK3 / RFU, SH3YL1 / Fold change vs veh, SH3YL1 / RFU, ZEB2 / Fold change vs veh, ZEB2 / RFU, NRIP1 / Fold change vs veh, NRIP1 / RFU, PTTG1IP / Fold change vs veh, PTTG1IP / RFU, CAPN2 / Fold change vs veh, CAPN2 / RFU, MED14 / Fold change vs veh, MED14 / RFU, SNORA58 / Fold change vs veh, SNORA58 / RFU, C1orf63 / Fold change vs veh, C1orf63 / RFU, LRRFIP1 / Fold change vs veh, LRRFIP1 / RFU, NDUFAF7 / Fold change vs veh, NDUFAF7 / RFU, SLC12A2 / Fold change vs veh, SLC12A2 / RFU, IBTK / Fold change vs veh, IBTK / RFU, ESF1 / Fold change vs veh, ESF1 / Fold change vs veh, TMEM50B / RFU, TAOK1 / Fold change vs veh, TAOK1 / RFU, ACBD3 / Fold change vs veh, ACBD3 / RFU, TMA16 / Fold change vs veh, TMA16 / RFU, RWDD3 / Fold change vs veh, RWDD3 / RFU, BCAT1 / Fold change vs veh, BCAT1 / RFU, EDEM3 / Fold change vs veh, EDEM3 / RFU, TMEM33 / Fold change vs veh, TMEM33 / RFU, WDR75 / Fold change vs veh, WDR75 / RFU, AHCTF1 / Fold change vs veh, AHCTF1 / RFU, TFRC / Fold change vs veh, TFRC / RFU, ZDHHC17 / Fold change vs veh, ZDHHC17 / RFU, NOM1 / Fold change vs veh, NOM1 / RFU, ARL8B / Fold change vs veh, ARL8B / RFU, ZBTB11 / Fold change vs veh, ZBTB11 / RFU, TAMM41 / Fold change vs veh, TAMM41 / RFU, KIAA1704 /// LOC100996395 / Fold change vs veh, KIAA1704 /// LOC100996395 / RFU, ING1 / Fold change vs veh, ING1 / RFU, TRMT61B / Fold change vs veh, TRMT61B / RFU, FUBP3 / Fold change vs veh, FUBP3 / RFU, TP53 / Fold change vs veh, TP53 / RFU, TNKS2 / Fold change vs veh, TNKS2 / RFU, ZFP14 / Fold change vs veh, ZFP14 / RFU, ACTR2 / Fold change vs veh, ACTR2 / RFU, PPP3R1 / Fold change vs veh, PPP3R1 / RFU, PIK3R1 / Fold change vs veh, PIK3R1 / RFU, HNRNPA1 / Fold change vs veh, HNRNPA1 / RFU, RNF170 / Fold change vs veh, RNF170 / RFU, ZNF28 / Fold change vs veh, ZNF28 / RFU, RNGTT / Fold change vs veh, RNGTT / RFU, OGT / Fold change vs veh, OGT / RFU, BRD1 / Fold change vs veh, BRD1 / RFU, MARS / Fold change vs veh, MARS / RFU, ZNF655 / Fold change vs veh, ZNF655 / RFU, FAHD1 / Fold change vs veh, FAHD1 / RFU, BDP1 / Fold change vs veh, BDP1 / RFU, LRRCC1 / Fold change vs veh, LRRCC1 / RFU, ARID1A / Fold change vs veh, ARID1A / RFU, ZNF146 / Fold change vs veh, ZNF146 / RFU, ZNF330 / Fold change vs veh, ZNF330 / RFU, GPN3 / Fold change vs veh, GPN3 / RFU, C9orf123 / Fold change vs veh, C9orf123 / RFU, N4BP2L2 / Fold change vs veh, N4BP2L2 / RFU, ARFIP1 / Fold change vs veh, ARFIP1 / RFU, FAM179B / Fold change vs veh, FAM179B / RFU, BCL10 / Fold change vs veh, BCL10 / RFU, UHRF1BP1L / Fold change vs veh, UHRF1BP1L / RFU, BET1 / Fold change vs veh, BET1 / RFU, CNOT2 / Fold change vs veh, CNOT2 / RFU, ZNF268 / Fold change vs veh, ZNF268 / Fold change vs veh, ZNF507 / RFU, DGCR2 / Fold change vs veh, DGCR2 / RFU, WDSUB1 / Fold change vs veh, WDSUB1 / Fold change vs veh, HSP90B1 /// MIR3652 / RFU, ADSS / Fold change vs veh, ADSS / RFU, GK / Fold change vs veh, GK / RFU, ZNF148 / Fold change vs veh, ZNF148 / RFU, TAF9 / Fold change vs veh, TAF9 / RFU, SLC1A5 / Fold change vs veh, SLC1A5 / RFU, SLMO2 / Fold change vs veh, SLMO2 / RFU, ABCC4 / Fold change vs veh, ABCC4 / RFU, LOC101060439 /// RAP1B / Fold change vs veh, LOC101060439 /// RAP1B / RFU, RFX7 / Fold change vs veh, RFX7 / RFU, GTPBP10 / Fold change vs veh, GTPBP10 / RFU, CNEP1R1 / Fold change vs veh, CNEP1R1 / RFU, BIVM-ERCC5 /// ERCC5 / Fold change vs veh, BIVM-ERCC5 /// ERCC5 / RFU, ILF3 / Fold change vs veh, ILF3 / RFU 11762660_at / Fold change /veh 11762660_at / RFU VCAN (11757783_s_at) / Fold change /veh VCAN (11757783_s_at) / RFU DDX43 (11728927_at) / Fold change /veh DDX43 (11728927_at) / RFU KRT8 (11758188_x_at) / Fold change /veh KRT8 (11758188_x_at) / RFU NKD1 (11759106_at) / Fold change /veh NKD1 (11759106_at) / RFU SRD5A1 (11742802_a_at) / Fold change /veh SRD5A1 (11742802_a_at) / RFU TPSAB1 /// TPSB2 (11721975_s_at) / Fold change /veh TPSAB1 /// TPSB2 (11721975_s_at) / RFU GSTM3 (11746129_a_at) / Fold change /veh GSTM3 (11746129_a_at) / RFU IL23R (11737362_x_at) / Fold change /veh IL23R (11737362_x_at) / RFU TMEM51 (11727254_a_at) / Fold change /veh TMEM51 (11727254_a_at) / RFU PIWIL2 (11732686_x_at) / Fold change /veh PIWIL2 (11732686_x_at) / RFU ORM1 (11744905_x_at) / Fold change /veh ORM1 (11744905_x_at) / RFU CCDC152 (11743942_at) / Fold change /veh CCDC152 (11743942_at) / RFU ECM1 (11717891_a_at) / Fold change /veh ECM1 (11717891_a_at) / RFU IL23R (11748794_a_at) / Fold change /veh IL23R (11748794_a_at) / RFU TNFAIP8L3 (11732012_x_at) / Fold change /veh TNFAIP8L3 (11732012_x_at) / RFU MBOAT4 (11741988_at) / Fold change /veh MBOAT4 (11741988_at) / RFU 11764193_at / Fold change /veh 11764193_at / RFU TMEM53 (11763286_at) / Fold change /veh TMEM53 (11763286_at) / RFU MAGEB2 (11727129_at) / Fold change /veh MAGEB2 (11727129_at) / RFU TMEM200A (11744735_a_at) / Fold change /veh TMEM200A (11744735_a_at) / RFU CCDC152 (11751479_a_at) / Fold change /veh CCDC152 (11751479_a_at) / RFU FAM211A (11726209_a_at) / Fold change /veh FAM211A (11726209_a_at) / RFU RGS16 (11746705_a_at) / Fold change /veh RGS16 (11746705_a_at) / RFU VCAN (11755009_s_at) / Fold change /veh VCAN (11755009_s_at) / RFU RHOB (11743442_s_at) / Fold change /veh RHOB (11743442_s_at) / RFU RGS16 (11720943_a_at) / Fold change /veh RGS16 (11720943_a_at) / RFU RGS16 (11720944_at) / Fold change /veh RGS16 (11720944_at) / RFU, VPS4B / Fold change vs veh, VPS4B / RFU, CREB1 / Fold change vs veh, CREB1 / RFU, DNAJC13 / Fold change vs veh, DNAJC13 / RFU, GNAQ / Fold change vs veh, GNAQ / RFU, CDK5R1 / Fold change vs veh, CDK5R1 / RFU, ZRANB3 / Fold change vs veh, ZRANB3 / RFU, CUL4A / Fold change vs veh, CUL4A / RFU, CCNY / Fold change vs veh, CCNY / RFU, UFL1 / Fold change vs veh, UFL1 / RFU, COG3 / Fold change vs veh, COG3 / RFU, DIAPH2 / Fold change vs veh, DIAPH2 / RFU, SKA2 / Fold change vs veh, SKA2 / RFU, AFF3 / Fold change vs veh, AFF3 / RFU, LMF1 / Fold change vs veh, LMF1 / RFU, IPO11 / Fold change vs veh, IPO11 / RFU, DFFB / Fold change vs veh, DFFB / RFU, FOXP1 / Fold change vs veh, FOXP1 / RFU, CARD8 / Fold change vs veh, CARD8 / RFU, STRN3 / Fold change vs veh, STRN3 / RFU, ADK / Fold change vs veh, ADK / RFU, RASSF2 / Fold change vs veh, RASSF2 / RFU, WIPF1 / Fold change vs veh, WIPF1 / RFU, LARP1B / Fold change vs veh, LARP1B / RFU, RASA1 / Fold change vs veh, RASA1 / RFU, RB1 / Fold change vs veh, RB1 / RFU, PPFIA1 / Fold change vs veh, PPFIA1 / RFU, MAT2A / Fold change vs veh, MAT2A / RFU, CCT5 / Fold change vs veh, CCT5 / RFU, WDR92 / Fold change vs veh, WDR92 / RFU, CUX1 / Fold change vs veh, CUX1 / RFU, TTC7A / Fold change vs veh, TTC7A / RFU, TMEM135 / Fold change vs veh, TMEM135 / RFU, DEPTOR / Fold change vs veh, DEPTOR / RFU, CPM / Fold change vs veh, CPM / RFU, DNAJB6 / Fold change vs veh, DNAJB6 / RFU, CACNA2D3 / Fold change vs veh, CACNA2D3 / RFU, DTX4 / Fold change vs veh, DTX4 / RFU, TFCP2 / Fold change vs veh, TFCP2 / RFU, GMCL1 /// GMCL1P1 / Fold change vs veh, GMCL1 /// GMCL1P1 / RFU, AEBP2 / Fold change vs veh, AEBP2 / RFU, SNHG1 /// SNORD22 /// SNORD25 /// SNORD26 /// SNORD27 /// SNORD28 /// SNORD29 /// SNORD31 / Fold change vs veh, SNHG1 /// SNORD22 /// SNORD25 /// SNORD26 /// SNORD27 /// SNORD28 /// SNORD29 /// SNORD31 / Fold change (Aza/veh), C12orf56 (ProbeSet 11735607_a_at) / Fold change (ACY-1035/veh), C12orf56 (ProbeSet 11735607_a_at) / Fold change (Aza/veh), FGFR1OP (ProbeSet 11751329_s_at) / Fold change (ACY-1035/veh), FGFR1OP (ProbeSet 11751329_s_at) / Fold change (Aza/veh), VPS36 (ProbeSet 11739960_a_at) / Fold change (ACY-1035/veh), VPS36 (ProbeSet 11739960_a_at) / RFU SYPL1 (11715823_x_at) / Fold change /veh SYPL1 (11715823_x_at) / RFU IGFBP7 (11715501_s_at) / Fold change /veh IGFBP7 (11715501_s_at) / RFU REEP3 (11722064_at) / Fold change /veh REEP3 (11722064_at) / RFU IGLL1 (11728026_x_at) / Fold change /veh IGLL1 (11728026_x_at): dose or concentration left out as unconfirmed
Settings: ProbeSet 11716844_s_at; LIST D

## Nc1ccc(-c2cccs2)cc1NC(=O)c1ccc2c(c1)cc(C1CC1)n2CCN1CCOCC1 [ACY-1035]
  Fold change vs veh, DNAJC13: 0.91
